From article PMC7576722, “An immunochemistry-based screen for chemical inhibitors of DNA-protein interactions and its application to human CGGBP1” (BMC Cancer, 2020)

Assays:
rCGGBP1 [1] = biological target: T1, rCGGBP1 (Homo sapiens, UniProt Q9UFW8); experiment: in vitro Alu DNA immunoprecipitation with qPCR (anti-FLAG); type: binding; conditions: 100 μM compound, 45 min, room temperature, PBS; Alu DNA 1 μg, protein 0.5 μg
T1 construct: gene CGGBP1; recombinant, C-terminal FLAG tag; about 20 kDa
T1 sequence (Q9UFW8 1-167): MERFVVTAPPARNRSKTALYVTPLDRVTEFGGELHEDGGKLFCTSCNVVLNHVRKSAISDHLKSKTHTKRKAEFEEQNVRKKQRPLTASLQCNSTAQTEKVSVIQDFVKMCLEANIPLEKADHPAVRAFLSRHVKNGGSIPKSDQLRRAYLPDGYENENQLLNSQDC
Experimental: in vitro Alu DNA immunoprecipitation with qPCR (anti-FLAG) on rCGGBP1 | Pre-incubation of rCGGBP1 with Givinostat reduces the amount of Alu DNA co-precipitating with FLAG-antibody by […]

rCGGBP1 [2] = biological target: T1, rCGGBP1; experiment: DBID dot blot of protein binding to immobilised genomic DNA, chemiluminescence densitometry; conditions: 100 μM compound, 45 min, 4 °C, RIPA buffer; sonicated HEK293T genomic DNA

CCN(CC)Cc1ccc2cc(COC(=O)Nc3ccc(C(=O)NO)cc3)ccc2c1 [Givinostat]
% reduction of co-precipitated Alu DNA at 100 μM (rCGGBP1 [1]): 70-80%

CC(NC(=O)c1ccccc1/N=C/c1c(O)ccc2ccccc12)c1ccccc1 (stereo not drawn) [Sirtinol]
DBID dot blot of protein binding to immobilised genomic DNA, chemiluminescence d (rCGGBP1 [2]): (ii) moderate inhibition (Sirtinol and Tenovin-I)

CC(=O)Nc1ccc(NC(=S)NC(=O)c2ccc(C(C)(C)C)cc2)cc1 [Tenovin-1]
DBID dot blot of protein binding to immobilised genomic DNA, chemiluminescence d (rCGGBP1 [2]): (ii) moderate inhibition (Sirtinol and Tenovin-I)
